Among the data in PubChem BioAssay (NCI) are TGI values, retold here.

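Test compounds were applied to cells in 96-well plates for 48 hours at 5 doses. TGI is the concentration that stops growth completely.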 Some results are limits rather than exact numbers.

Among the test systems are NCI-H23 lung; PC-3 prostate; SN12C renal; BT-549 breast; MDA-MB-435; T-47D breast; NCI-H522 lung; NCI-H226 lung; SK-MEL-5 melanoma; KM12 colon; LOX IMVI melanoma; NCI/ADR-RES ovarian; OVCAR-4 ovarian; SF-268 CNS; A498 renal.
What all share (experiment): NCI anticancer screen, dose series, 48 h

On to `N#CCCN(C(=O)Nc1ccccc1)[C@H]1CCCC[C@@H]1N(C(=O)Nc1ccccc1)c1ccccc1`, for which the TGI in the experiment on NCI-H23 lung, with PC-3 prostate, in the experiment on SN12C renal, in the experiment on BT-549 breast, in the experiment on MDA-MB-435 and in the experiment with T-47D breast was over 100 µM each time. Further, the TGI in the experiment with NCI-H522 lung, in the experiment with NCI-H226 lung, with SK-MEL-5 melanoma, with KM12 colon, in the experiment on LOX IMVI melanoma and with NCI/ADR-RES ovarian was over 100 µM in each case. Besides, the TGI in the experiment on OVCAR-4 ovarian is over 100 µM.

With `O=C1CCCC1CN1CCCC1` (stereo not given), the TGI in the experiment with NCI-H23 lung worked out at 31.3 µM; in the experiment with PC-3 prostate it was 35.2 µM; in the experiment on SN12C renal, 32.6 µM; with BT-549 breast it was 3.09 µM; with MDA-MB-435, 26.3 µM; with T-47D breast, 10.8 µM. Also, the TGI with NCI-H226 lung is over 100 µM; in the experiment on SK-MEL-5 melanoma, 31.9 µM; with KM12 colon, 35 µM; in the experiment on LOX IMVI melanoma, 24.4 µM; with SF-268 CNS, 48.5 µM; in the experiment on NCI/ADR-RES ovarian it was 37.9 µM. In addition, the TGI with OVCAR-4 ovarian was found to be 4.32 µM; in the experiment on A498 renal, 45.1 µM.

For `O=C1/C(=C/c2ccccc2S)N=C(c2ccccc2)N1c1nc2c(Cl)cc(Cl)cc2s1`, the TGI with PC-3 prostate was 51.6 µM; in the experiment with SN12C renal it was 44.2 µM; in the experiment with BT-549 breast, over 100 µM; in the experiment with MDA-MB-435, 48.2 µM; with T-47D breast, over 100 µM; with SK-MEL-5 melanoma, 36 µM. Besides, the TGI with KM12 colon was 88.1 µM; with LOX IMVI melanoma it was 50.4 µM; in the experiment on SF-268 CNS, over 100 µM; with NCI/ADR-RES ovarian, 84.9 µM; with OVCAR-4 ovarian, 73.8 µM; in the experiment on A498 renal it was 40.7 µM.

`CC12CC(c3ccccc3O1)C(C(=O)Nc1ccc(Cl)cc1Cl)C(=O)N2` (stereo not given): the TGI is over 100 µM with NCI-H23 lung; over 100 µM with PC-3 prostate; over 100 µM in the experiment with BT-549 breast; over 100 µM in the experiment on MDA-MB-435; 70.9 µM in the experiment on T-47D breast; over 100 µM in the experiment with NCI-H522 lung. For the same compound, the TGI was over 100 µM with SK-MEL-5 melanoma; over 100 µM in the experiment with KM12 colon; 49.5 µM in the experiment on LOX IMVI melanoma; over 100 µM in the experiment with SF-268 CNS; over 100 µM in the experiment on NCI/ADR-RES ovarian; 39.6 µM in the experiment on OVCAR-4 ovarian.

Regarding `Cc1nc2c(nc1C)-c1[nH]c3c(c1C(=O)C2=O)CCCC3=O`, the TGI with NCI-H23 lung came to 5.63 µM; in the experiment on PC-3 prostate, 15.7 µM; in the experiment on SN12C renal it was 3.28 µM; with MDA-MB-435, 1.48 µM; in the experiment with T-47D breast it was 0.709 µM; in the experiment on NCI-H522 lung it was 4.42 µM. In addition, the TGI in the experiment with NCI-H226 lung is 3.04 µM; with SK-MEL-5 melanoma, 3.02 µM; with KM12 colon it was 4.43 µM; with LOX IMVI melanoma, 2.87 µM; with SF-268 CNS, 2.9 µM; in the experiment with NCI/ADR-RES ovarian it was 6.47 µM. For the same compound, the TGI is 3.04 µM in the experiment with OVCAR-4 ovarian and 21.5 µM with A498 renal.

In the case of `O=c1[nH]nc(Cc2ccccc2)n1/N=C/c1ccccc1O`, the TGI in the experiment with NCI-H23 lung, with SN12C renal, in the experiment with BT-549 breast, in the experiment on MDA-MB-435, in the experiment on T-47D breast and with NCI-H522 lung was over 100 µM each time. The TGI in the experiment with NCI-H226 lung, in the experiment on SK-MEL-5 melanoma, with KM12 colon, with LOX IMVI melanoma, with SF-268 CNS and in the experiment on NCI/ADR-RES ovarian was over 100 µM throughout. In addition, the TGI in the experiment with OVCAR-4 ovarian and in the experiment with A498 renal was over 100 µM throughout.

For the compound `CC(C)C(=O)OCC1OC(n2c(Br)nc3c(=O)[nH]c(N)nc32)C(OC(=O)C(C)C)C1OC(=O)C(C)C` (stereo not given), the TGI in the experiment with PC-3 prostate is 62.9 µM; in the experiment with SN12C renal, over 100 µM; with BT-549 breast, over 100 µM; in the experiment on T-47D breast, over 100 µM; in the experiment on NCI-H522 lung, over 100 µM; with NCI-H226 lung, over 100 µM. Moreover, the TGI in the experiment with LOX IMVI melanoma was 55.5 µM; in the experiment on SF-268 CNS, over 100 µM; with NCI/ADR-RES ovarian, over 100 µM.

For `N#Cc1c(N)n(-c2cccc(C(=O)O)c2)c(=O)c2cc([N+](=O)[O-])ccc12`, the TGI with NCI-H23 lung, in the experiment on PC-3 prostate, with SN12C renal, in the experiment on BT-549 breast, in the experiment with MDA-MB-435 and in the experiment with T-47D breast was over 100 µM each time. Moreover, the TGI in the experiment with NCI-H226 lung, with SK-MEL-5 melanoma, in the experiment with KM12 colon, in the experiment with LOX IMVI melanoma, in the experiment on SF-268 CNS and in the experiment with NCI/ADR-RES ovarian was over 100 µM in each case. For the same compound, the TGI with OVCAR-4 ovarian and with A498 renal was over 100 µM throughout.

`CC(C)=CC[C@]12CCN[C@H]1N(S(=O)(=O)c1ccccc1)c1ccccc12`: the TGI in the experiment on NCI-H23 lung is over 100 µM; in the experiment on PC-3 prostate, 27.4 µM; in the experiment with SN12C renal it was 26.4 µM; with BT-549 breast, 33.7 µM; in the experiment with MDA-MB-435, 32.5 µM; in the experiment on T-47D breast it was 92.9 µM. The TGI in the experiment on NCI-H522 lung worked out at 30.1 µM; in the experiment with NCI-H226 lung, 36.7 µM; in the experiment on SK-MEL-5 melanoma, 28.1 µM; in the experiment on KM12 colon, 76.3 µM; in the experiment with LOX IMVI melanoma, 31.2 µM; in the experiment with SF-268 CNS, 33.3 µM. The TGI in the experiment with NCI/ADR-RES ovarian was found to be 30.5 µM; in the experiment with OVCAR-4 ovarian it was 42 µM.

For `O=C(O)C(NCc1ccccc1)C(NCc1ccccc1)C(=O)O` (stereo not given), the TGI with NCI-H23 lung, with SN12C renal, in the experiment with BT-549 breast, with MDA-MB-435, with T-47D breast and with NCI-H522 lung was over 100 µM throughout. Moreover, the TGI in the experiment with NCI-H226 lung, in the experiment on SK-MEL-5 melanoma, in the experiment on KM12 colon, with LOX IMVI melanoma, in the experiment with SF-268 CNS and in the experiment with NCI/ADR-RES ovarian was over 100 µM each time. Moreover, the TGI with OVCAR-4 ovarian and in the experiment with A498 renal was over 100 µM throughout.
